Measured values taken from paper PMC5813806 (ACS chemical neuroscience, 2016).
“And” between values parts separate entries of the source, which are not always exact repeats. Equal values may be shown once. Read-outs that look alike come from different tables or passages of the source.

What was measured:
[1] = biological target: T1, human D3 receptor (CHO-D3R) (Homo sapiens, UniProt P35462); experiment: ERK1/2 phosphorylation; assay type: cell-based; conditions: for ERK1/2 phosphorylation, functional screening (result in words): CHO-D3R cells, 5 min
[2] = biological target: T2, human D2 receptor (CHO-D2R) (Homo sapiens, UniProt P14416); experiment: ERK1/2 phosphorylation; assay type: cell-based; conditions: CHO-D2R cells, 1 μM, 5 min
hD3R = hD3R (Homo sapiens, UniProt P35462); experiment: PathHunter eXpress U2OS D3R β-arrestin-2 recruitment assay; assay type: cell-based
[3] = biological target: T1, human D3 receptor (CHO-D3R); experiment: Agonist-induced [35S]GTPγS binding to CHO-D3R membranes; assay type: biochemical
[4] = biological target: T2, human D2 receptor (CHO-D2R); experiment: [3H]methylspiperone binding to CHO-D2R membranes; conditions: 10 μM; for Affinity to D2R, high-affinity state (result in words): CHO-D2R membranes pretreated with GDP and Na+, Mg2+ buffer; for Binding to D2R in binding screening (result in words): CHO-D2R, regular binding buffer
[5] = biological target: T1, human D3 receptor (CHO-D3R); experiment: [3H]methylspiperone binding to CHO-D3R membranes; conditions: for Ki: [3H]methylspiperone competition, two-site analysis
[6] = biological target: T3, human D4 receptor (HEK-D4R) (Homo sapiens, UniProt P21917); experiment: [3H]methylspiperone binding screening at HEK-D4R; conditions: 10 μM
T3 sequence (P21917 1-419): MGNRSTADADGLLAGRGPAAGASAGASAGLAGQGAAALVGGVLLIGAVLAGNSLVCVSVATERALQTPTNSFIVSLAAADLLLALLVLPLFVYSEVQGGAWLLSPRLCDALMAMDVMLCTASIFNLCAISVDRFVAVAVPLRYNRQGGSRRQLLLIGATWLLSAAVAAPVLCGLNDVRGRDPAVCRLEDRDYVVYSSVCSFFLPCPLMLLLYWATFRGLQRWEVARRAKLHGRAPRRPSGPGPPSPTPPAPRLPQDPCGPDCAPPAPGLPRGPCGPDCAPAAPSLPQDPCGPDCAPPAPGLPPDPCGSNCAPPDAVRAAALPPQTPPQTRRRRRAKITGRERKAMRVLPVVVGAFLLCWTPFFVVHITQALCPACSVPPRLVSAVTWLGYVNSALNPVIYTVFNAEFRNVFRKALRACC

[7] = biological target: human D3 receptor (HEK-D3R) (Homo sapiens, UniProt P35462); assay type: cell-based; conditions: 1 μM 30 min pretreatment, washes, 1 μM 2 min
[8] = biological target: T2, human D2 receptor (CHO-D2R); experiment: Agonist-induced [35S]GTPγS binding to CHO-D2R membranes; assay type: biochemical

T1 sequence (P35462 whole entry): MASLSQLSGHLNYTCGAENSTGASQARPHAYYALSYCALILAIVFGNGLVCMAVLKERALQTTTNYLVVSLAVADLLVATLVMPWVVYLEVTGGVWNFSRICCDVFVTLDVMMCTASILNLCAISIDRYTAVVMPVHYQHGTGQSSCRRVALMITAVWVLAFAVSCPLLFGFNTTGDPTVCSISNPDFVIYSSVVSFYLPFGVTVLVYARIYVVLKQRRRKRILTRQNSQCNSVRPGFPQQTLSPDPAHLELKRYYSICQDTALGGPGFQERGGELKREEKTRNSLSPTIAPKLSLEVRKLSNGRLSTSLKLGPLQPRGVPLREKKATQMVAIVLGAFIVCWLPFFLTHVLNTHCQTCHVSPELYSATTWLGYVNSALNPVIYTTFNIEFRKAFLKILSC
T2 sequence (P14416 whole entry): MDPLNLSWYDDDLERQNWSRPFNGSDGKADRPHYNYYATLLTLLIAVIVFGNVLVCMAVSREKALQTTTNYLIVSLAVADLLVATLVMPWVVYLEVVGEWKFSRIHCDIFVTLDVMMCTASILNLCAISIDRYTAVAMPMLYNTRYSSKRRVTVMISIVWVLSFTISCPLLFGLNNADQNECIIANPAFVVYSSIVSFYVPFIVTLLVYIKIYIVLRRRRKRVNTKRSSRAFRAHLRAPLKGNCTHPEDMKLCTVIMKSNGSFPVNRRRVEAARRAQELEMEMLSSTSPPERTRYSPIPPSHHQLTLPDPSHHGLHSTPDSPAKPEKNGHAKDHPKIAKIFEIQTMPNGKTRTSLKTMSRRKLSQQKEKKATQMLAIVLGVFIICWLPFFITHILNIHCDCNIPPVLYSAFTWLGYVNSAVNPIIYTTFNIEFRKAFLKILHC
Chain of hD3R (P35462 whole entry): as the sequence (P35462 whole entry) above
Chain of human D3 receptor (HEK-D3R) (P35462 whole entry): as above

SMILES | ERK1/2 phosphorylation, functional screening (result in words) ([1]; 1 μM) | Selectivity to D3R in ERK1/2 activation ([1]; CHO-D3R versus CHO-D2R cells, 1 μM) | ERK1/2 phosphorylation, functional screening (result in words) [2] | β-arrestin recruitment Emax (hD3R; perhaps underestimates from incomplete curves) | EC50 (hD3R; read-out: β-arrestin recruitment EC50, 90 min stimulation) [nM] | [35S]GTPγS binding Emax ([3]; DA effect defined as 100%) | EC50 ([3]; read-out: [35S]GTPγS binding EC50) | Affinity to D2R, high-affinity state (result in words) [4] | Binding to D2R in binding screening (result in words) [4] | IC50 ([4]; read-out: IC50 for D2R binding, low-affinity state, CHO-D2R in Na+-GTPγS binding buffer) [nM] | Binding to D3R in binding screening (result in words) ([5]; CHO-D3R, 10 μM) | Ki ([5]; read-out: Ki-H (high-affinity Ki) to CHO-hD3) [nM] | Ki ([5]; read-out: Ki-L (low-affinity Ki) to CHO-hD3) [nM] | Binding to D4R in binding screening (result in words) [6] | Desensitization of D3R/ERK1/2 signaling on repeated treatment [7] | [35S]GTPγS binding Emax ([8]; D2R, DA effect defined as 100%) | EC50 ([8]; read-out: [35S]GTPγS binding EC50, D2R (CHO-D2R membranes)) [nM] | ERK1/2 phosphorylation Emax ([1]; CHO-D3R cells treated 5 min at 37 °C, DA = 100) | EC50 ([1]; read-out: ERK1/2 phosphorylation EC50, CHO-D3R cells treated 5 min at 37 °C) [nM]
CC(N)CCc1ccco1 (centres unmarked) [SK603, 4-(fluran-2-yl)butan-2-amine] | reduction in functional effect | maintained selectivity to D3R |  |  |  |  |  |  |  |  |  |  |  |  |  |  |  |  | 
CCCN1CCO[C@@H]2c3cc(O)ccc3OC[C@H]21 [PD128907] | significantly activated ERK1/2 phosphorylation |  | significantly evoked ERK1/2 phosphorylation | 100 % of PD128907 | 5.5 ± 0.18 | 95.1 ± 2.1 % of DA | 1.19 nM and 1.2 nM | higher affinity for D2R than in the regular binding buffer | high binding affinity | > 10000 | high binding affinity | 3.7 ± 1.6 | 14.6 ± 3.6 | high binding affinity | significant reduction of ERK1/2 phosphorylation signal | 92.8 ± 1.7 % of DA | 103 ± 29.6 | 100 | 7.1 ± 0.5
NCCc1ccc(O)c(O)c1 [DA, dopamine] |  |  | significantly evoked ERK1/2 phosphorylation |  |  |  |  | higher affinity for D2R than in the regular binding buffer | high binding affinity |  |  |  |  |  |  |  |  |  | 
